Measurements taken from patent US20250066359A1, “SOMATOSTATIN RECEPTOR SUBTYPE 5 ANTAGONISTS, AND PHARMACEUTICAL COMPOSITION AND USE THEREOF” (SHANGHAI INSTITUTE OF MATERIA MEDICA, CHINESE ACADEMY OF …, priority 2021, published 2025).

Experiments:
[1] = biological target: T1, mSSTR5 (Mus musculus, UniProt O08858); test: SSTR5 antagonistic activity in vitro by calcium flow detection (mSSTR5-CHO-Gα16 cells); assay type: cell-based; conditions: 100 nM Somatostatin-14 agonist, Fluo-4 fluorescence 525 nm
T1 construct: expressed in transfected cells; host or cells: CHO cells co-expressing Gα16 (mSSTR5-CHO-Gα16)
T1 sequence (O08858 1-362): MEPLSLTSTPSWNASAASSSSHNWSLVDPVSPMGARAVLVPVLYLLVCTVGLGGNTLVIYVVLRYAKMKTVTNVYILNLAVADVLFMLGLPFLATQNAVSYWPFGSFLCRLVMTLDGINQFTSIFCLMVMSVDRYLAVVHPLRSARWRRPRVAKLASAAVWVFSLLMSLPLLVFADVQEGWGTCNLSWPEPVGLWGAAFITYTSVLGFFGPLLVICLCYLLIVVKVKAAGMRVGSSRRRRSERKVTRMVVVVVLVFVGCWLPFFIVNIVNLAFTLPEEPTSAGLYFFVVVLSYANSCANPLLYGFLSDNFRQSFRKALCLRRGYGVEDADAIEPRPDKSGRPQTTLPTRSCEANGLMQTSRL
From the text: (§1) Testing SSTR5 antagonistic activity in vitro by Calcium flow detection method Experimental principle: After the receptor binds to the ligand and is activated, it can cause the activation of Gα16 protein, which further activates phospholipase C(PLC) to produce IP3 and DAG. IP3 can bind to the IP3 receptors on the endoplasmic reticulum and mitochondria in the cell, thereby causing the release of intracellular calcium. Therefore, measuring the changes in intracellular calcium can be used in the method to detect the activation state of hSSTR5. Fluo-4/AM is a calcium fluorescent probe indicator used to measure calcium ions. As a non-polar lipid-soluble compound, after it enters the cell, the AM group therein dissociates, and Fluo-4 is released under the action of cellular lipase; because Fluo-4 is a polar molecule and is not easy to pass through the lipid bilayer membrane, it can keep Fluo-4 in the cell fora longtime. Finally, the level of Ga protein activation can be reflected by measuring the intensity of the excited fluorescence. Somatostatin, an agonist of SSTR5, can activate SSTR5 receptors and greatly increase the calcium flow response. The SSTR5 antagonist to be tested can inhibit the agonist activity of the SSTR5 receptor and reduce the calcium increased flow response of the receptor stimulated by the agonist.
(§2) • (1) The hSSTR5-CHO-Gα16 and mSSTR5-CHO-Gα16 cell lines stably expressing hSSTR5 or mSSTR5 receptors were seeded at a density of 30,000/well in a 96-well plate and cultured in a 37° C. incubator overnight. • (2) The cells was aspirated off the culture medium, added with freshly prepared dye at 40 μL/well, and incubated in a 37° C. incubator for 45 minutes. • (3) After the dye was aspirated and discarded, the cells were washed with freshly prepared calcium buffer and the culture medium was replaced with 50 μL of calcium buffer. • (4) The SSTR5 agonist Somatostatin-14 was diluted and mixed evenly with calcium buffer. • (5) Detection was performed using a Flextation instrument. Starting from the 15th second, 25 μL of the pre-prepared agonist was automatically added by the instrument, and the fluorescence value at 525 nm was read.

[2] = biological target: T2, hSSTR5 (Homo sapiens, UniProt P35346); test: SSTR5 antagonistic activity in vitro by calcium flow detection (hSSTR5-CHO-Gα16 cells); assay type: cell-based; conditions: for IC50: hSSTR5-CHO-Gα16 cells, 100 nM Somatostatin-14 agonist, Fluo-4 fluorescence 525 nm; for SSTR5 antagonistic activity (in words): summary of Table 1
T2 construct: expressed in transfected cells; host or cells: CHO cells co-expressing Gα16 (hSSTR5-CHO-Gα16)
From the text: as §1, §2

[3] = system: C57BL/6J mice; test: Gallbladder emptying promotion experiment; assay type: in vivo, mouse; conditions: 30 mg/kg by gavage, egg yolk 1 h later, gallbladder removed after 15 min, versus control group, FIG. 2
Protocol: Experimental method: Before the experiment, 8-10 weeks old C57BL/6J mice were fasted for 17-18 hours and allowed to drink water freely. The mice were then divided into groups according to weight (n=4), and were gavaged with an aqueous solution of the compound prepared in Example 34 (30 mg/kg) or an equal volume of distilled water (control group), with a dosing volume of 10 mL/kg. At one hour after administration, 200 microliters of egg yolk were orally administered to the mice. After 15 minutes, the mice were killed by dislocation and dissected, and the gallbladder was removed and the bile was squeezed out and weighed with an analytical balance.

[4] = system: SSTR5; test: Calcium flow response to the SSTR5 agonist (choice of agonist concentration); assay type: cell-based; conditions: CHO-Gα16 cells expressing SSTR5, cell line (h or m) not stated
From the text: as §1, with “agonist. […]” for “agonist.”

T2 sequence (P35346 whole entry): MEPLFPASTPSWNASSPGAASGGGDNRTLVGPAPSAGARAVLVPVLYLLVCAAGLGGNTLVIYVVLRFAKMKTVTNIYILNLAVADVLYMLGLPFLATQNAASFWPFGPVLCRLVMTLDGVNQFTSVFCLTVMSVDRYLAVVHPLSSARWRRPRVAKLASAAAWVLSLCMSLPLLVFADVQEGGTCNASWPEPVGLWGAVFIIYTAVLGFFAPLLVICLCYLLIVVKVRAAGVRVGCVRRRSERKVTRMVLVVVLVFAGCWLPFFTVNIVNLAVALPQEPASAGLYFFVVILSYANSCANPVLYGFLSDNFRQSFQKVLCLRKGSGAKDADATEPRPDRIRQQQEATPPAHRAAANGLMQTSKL

| Compound | IC50 [1] [nM] | IC50 [2] [nM] | SSTR5 antagonistic activity (in words) [2] | emptying of the mouse gallbladder (bile weight) [3] | EC50 [4] [nM] |
| --- | --- | --- | --- | --- | --- |
| CCOc1cc(CN2CCC3(CC2)CN(c2ccc(C(=O)O)cc2F)C3)cc(OCC)c1-c1ccc(F)cc1 [Example 27, 4-(7-((2,6-diethoxy-4′-fluoro-[1,1′-biphenyl]-4-yl)methyl)-2,7-diazaspiro[3.5]nonan-2-yl)-3-fluorobenzoic acid] | 0.1 to 50 | 0.1 to 50 | potent SSTR5 antagonistic activity | – | – |
| CCOc1cc(CN2CCC3(CC2)CN(c2ccc(C(=O)O)c(OC)c2)C3)cc(OCC)c1-c1ccc(F)cc1 [Example 28, 4-(7-((2,6-diethoxy-4′-fluoro-[1,1′-biphenyl]-4-yl)methyl)-2,7-diazaspiro[3.5]nonan-2-yl)-2-methoxybenzoic acid] | 0.1 to 50 | 0.1 to 50 | potent SSTR5 antagonistic activity | – | – |
| CCOc1cc(CN2CCC3(CC2)CN(c2ccc(C(=O)O)c(F)c2)C3)c(C2CC2)cc1C [Example 34, 4-(7-(2-cyclopropyl-5-ethoxy-4-methylbenzyl)-2,7-diazaspiro[3.5]nonan-2-yl)-2-fluorobenzoic acid] | – | – | – | significantly promote the emptying of the mouse gallbladder | – |
| Somatostatin-14 | – | – | – | – | 9.7 |
